Experimental findings from US20160077081A1, “METHOD FOR A CELL-BASED DRUG SCREENING ASSAY AND THE USE THEREOF” (QGEL SA, priority 2013, published 2016) are described below.

In experiment [1] the test system is Pancreatic Panc-1 cancer cells. In words: Alamar Blue readout on Panc-1 cells in three-dimensional matrices, late-stage treatment with or without drug-free recovery. The experiment is classed as cell-based. The text has this: The “early-stage” comprises two time points for readout. The first point of time at day seven is at the end of the drug treatment, whereas the second point in time at day eleven follows a drug-free recovery phase. The “late-stage” comprises two time points for readout. The first point in time at day seventeen is at the end of a second (independent from “early-stage”) drug treatment phase. The second point in time at day twenty-one follows a drug-free recovery phase. Measurements at additional points in time can be performed before the start of treatment and/or after different drug-free recovery phases. […] The dose-dependant efficacy profiles for “late-stage” treatment with Gemcitabine on pancreatic cancer cells culture in three-dimensional matrices were measured according to Alamar Blue® readout before and after the drug-free recovery period of four to seven, days.
(In general: The colour change of resazurin is a common sign of viable cells or microbes.)

Experiment [2] has as its system Pancreatic Panc-1 cancer cells. In words: Two-dimensional reference assay on pancreatic cancer cells. The class given is cell-based. As to the method:
For reference two-dimensional assays, cells are normally tested with drugs within the logarithmic proliferations phase between day one to four (FIG. 9). […] The dose-dependant efficacy profiles for “late-stage” treatment with Gemcitabine on pancreatic cancer cells culture in three-dimensional matrices were measured according to Alamar Blue® readout before and after the drug-free recovery period of four to seven, days.

Experiment [3] deals with Colon cancer HCT 116 cells. In words: Image-based analysis of cancer cell spheroid size in a three-dimensional matrix after early-/late-stage treatment. Particulars: early-stage treatment, IC50 and 1 mM. As to the method: In FIG. 3B an image-based analysis quantifying the distribution of diameter sizes of cell colonies, specifically cancer spheroids measured immediately after “early-” and “late-stage” treatment is shown as an example of a selection of drugs from FIG. 3 A at a drug concentration of 10 μM. Filled curves correspond to “hits” and unfilled curves are “no Hits” as determined using metabolic readouts at the ends of “early stage” and “late-stage” (Positive control: Cells treated with copper sulphate; negative control; Cells treated with DMSO).
In FIG. 4 the determination of the half maximal inhibitory concentration (IC50) as an Alamar Blue® readout of selected “Hits” in FIG. 2, example 5-Fluorouracil (5-FU), on colonies of Colon cancer HCT 116 cells is shown. The readout was performed immediately after “early-” and “late-stage” treatments of cells in a three-dimensional matrix. […] The IC50 curves obtained with two-dimensional reference assays are often similar to “early-stage” treatment conditions of the present invention (three-dimensional). This is also shown in the drug screening correlation of most “Hits” observed with the two assay methods in FIG. 3 A (upper panel). In FIG. 4 B an image-based analysis of cancer cell spheroids grown in a three-dimensional matrix after “early-” and “late-stage” treatment at selected drug concentrations, IC50 and 1 mM, are shown.

In experiment [4] the test system is Colon cancer HCT 116 cells. In words: Alamar Blue metabolic readout on colonies of HCT 116 cells in a three-dimensional matrix, early-/late-stage treatment schedule. The class given is cell-based. Conditions: for Hit in drug screening (metabolic readout, Alamar Blue): 10 μM. As to the method:
An example is given comprising an “early-” and a “late-stage” drug treatment for cells grown in three-dimensional matrices. Conditions of different cancer stages are identified, derived from profiling assays, as in FIG. 1, and schedules for drug screening are determined accordingly. Here, different cancer stages for cells cultured in three-dimensional matrices are determined as “early-” and “late-stage” cancer treatment.
The “early-stage” comprises two time points for readout. The first point of time at day seven is at the end of the drug treatment, whereas the second point in time at day eleven follows a drug-free recovery phase. The “late-stage” comprises two time points for readout. The first point in time at day seventeen is at the end of a second (independent from “early-stage”) drug treatment phase. The second point in time at day twenty-one follows a drug-free recovery phase. Measurements at additional points in time can be performed before the start of treatment and/or after different drug-free recovery phases.
In contrary, the “late-stage” illustrates existence of larger spheroids with a diameter of 155 μm, low cell proliferation (shown in FIG. 9), and presence of hypoxic condition (FIG. 1C). In both cases, the readouts are performed immediately after treatment end to test immediate drug efficacy, and after a four-day drug-free period to test recurrence of “mini-tumour” growth and/or retarded drug effects as the case observed with Gemcitabine (FIG. 10).
As an example for “Hit” generation a selection of drugs from a commercially available drug library (Prestwick) is used. In A) the effect of sixty drugs on cancer cells measured by metabolic readout (Alamar Blue®) is shown. […]
In FIG. 4 the determination of the half maximal inhibitory concentration (IC50) as an Alamar Blue® readout of selected “Hits” in FIG. 2, example 5-Fluorouracil (5-FU), on colonies of Colon cancer HCT 116 cells is shown. The readout was performed immediately after “early-” and “late-stage” treatments of cells in a three-dimensional matrix. […]

With `Nc1ccn([C@@H]2O[C@H](CO)[C@@H](O)C2(F)F)c(=O)n1` [Gemcitabine], the “Cell growth inhibition (dose-dependent efficacy, Alamar Blue)” value in experiment [1] (measured after drug-free recovery period of four to seven days) was “potent cell growth inhibitor”. Also, in experiment [1] (measured immediately after the treatment), the “Activity (dose-dependent efficacy, Alamar Blue)” value is given as “not shown to be active”. Moreover, in experiment [2], the “Activity (dose-dependent efficacy)” value is listed as “not shown to be active”.

As to `O=c1[nH]cc(F)c(=O)[nH]1` [5-FU, 5-Fluorouracil], the “Inhibition of spheroid growth” value in experiment [3] is “strong inhibition”. The “Hit in drug screening (metabolic readout, Alamar Blue)” value in experiment [4] (triplicate, selected Hit of the screening campaign, stage not stated) is “Hits”; in experiment [4] (late-stage treatment, three-dimensional matrix), “no Hit”. In addition, the “Potency (IC50 shift) from early to late treatment” value in experiment [4] (late-stage versus early-stage treatment, readout immediately after treatment, three-dimensional matrix) is “less potent”.
